Experimental data from ChEMBL document CHEMBL1201862, “PubChem BioAssay data set” (2004).
Calls of active or inactive are those of the source.

Tests used:
[1] = target: T1, Corticotropin-releasing factor receptor 2/Corticotropin-releasing factor-binding protein (Homo sapiens, UniProt P24387+Q13324); experiment: activators of CRF receptor 2 with binding protein – uHTS hits, confirmation (AID 602473); format: functional; conditions: read-out: EC50_Mean
T1 sequence (Q13324 whole entry): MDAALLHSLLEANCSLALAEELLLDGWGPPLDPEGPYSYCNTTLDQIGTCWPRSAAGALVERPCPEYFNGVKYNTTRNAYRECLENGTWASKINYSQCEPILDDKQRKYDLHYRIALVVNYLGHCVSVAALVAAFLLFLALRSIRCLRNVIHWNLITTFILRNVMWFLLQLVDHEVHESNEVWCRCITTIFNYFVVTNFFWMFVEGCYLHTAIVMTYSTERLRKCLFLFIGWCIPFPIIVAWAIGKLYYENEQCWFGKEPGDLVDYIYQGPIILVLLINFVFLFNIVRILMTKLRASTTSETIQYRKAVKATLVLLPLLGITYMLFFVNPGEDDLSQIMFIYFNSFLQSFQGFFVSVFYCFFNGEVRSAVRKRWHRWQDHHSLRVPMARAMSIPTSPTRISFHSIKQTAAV
T1 sequence (P24387 whole entry): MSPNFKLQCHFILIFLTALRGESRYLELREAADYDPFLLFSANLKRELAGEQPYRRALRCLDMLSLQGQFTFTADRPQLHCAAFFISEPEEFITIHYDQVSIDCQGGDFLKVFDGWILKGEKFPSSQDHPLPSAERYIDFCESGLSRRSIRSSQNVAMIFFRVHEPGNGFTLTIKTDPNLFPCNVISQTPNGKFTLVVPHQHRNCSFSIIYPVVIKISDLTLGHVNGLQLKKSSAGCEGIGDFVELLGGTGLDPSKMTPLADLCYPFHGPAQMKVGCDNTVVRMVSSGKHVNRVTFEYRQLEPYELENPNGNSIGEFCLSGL

[2] = target: T2, CAAX prenyl protease 2 (Homo sapiens, UniProt Q9Y256); experiment: human Rce1 protease inhibitors, dose response, biochemical, yeast membranes, quenched-peptide fluorescence, cherry-pick (AID 588849)
T2 sequence (Q9Y256 whole entry): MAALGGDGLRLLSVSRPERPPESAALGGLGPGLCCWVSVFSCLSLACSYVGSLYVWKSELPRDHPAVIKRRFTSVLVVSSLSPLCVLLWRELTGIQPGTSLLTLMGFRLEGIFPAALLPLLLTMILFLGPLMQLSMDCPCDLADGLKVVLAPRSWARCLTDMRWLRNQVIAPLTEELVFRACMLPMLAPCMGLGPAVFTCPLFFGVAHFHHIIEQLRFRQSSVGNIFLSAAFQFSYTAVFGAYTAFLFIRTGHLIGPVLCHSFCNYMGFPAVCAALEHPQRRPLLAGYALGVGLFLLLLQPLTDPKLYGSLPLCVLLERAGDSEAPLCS

[3] = target: T1, Corticotropin-releasing factor receptor 2/Corticotropin-releasing factor-binding protein; experiment: Dose Response confirmation of uHTS hits for small molecule antagonists of the CRF-binding protein and CRF-R2 receptor complex.; format: functional; conditions: read-out: IC50_Mean
[4] = target: Glyceraldehyde-3-phosphate dehydrogenase (Homo sapiens, UniProt P04406)
Glyceraldehyde-3-phosphate dehydrogenase, sequence (P04406 whole entry): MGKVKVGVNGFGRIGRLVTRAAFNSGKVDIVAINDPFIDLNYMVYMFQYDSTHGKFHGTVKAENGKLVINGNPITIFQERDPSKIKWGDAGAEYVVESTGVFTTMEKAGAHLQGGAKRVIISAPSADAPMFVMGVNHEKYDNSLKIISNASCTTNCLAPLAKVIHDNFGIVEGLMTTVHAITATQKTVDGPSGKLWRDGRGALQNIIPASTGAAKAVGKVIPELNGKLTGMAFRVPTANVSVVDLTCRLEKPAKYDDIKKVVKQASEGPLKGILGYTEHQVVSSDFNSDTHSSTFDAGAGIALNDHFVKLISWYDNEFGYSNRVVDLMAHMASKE

[5] = target: T3, Alkaline phosphatase, tissue-nonspecific isozyme (Homo sapiens, UniProt P05186); experiment: human TNAP enzyme inhibitors, SAR follow-up, biochemical, luminescent, dose response (AID 1056)
T3 sequence (P05186 whole entry): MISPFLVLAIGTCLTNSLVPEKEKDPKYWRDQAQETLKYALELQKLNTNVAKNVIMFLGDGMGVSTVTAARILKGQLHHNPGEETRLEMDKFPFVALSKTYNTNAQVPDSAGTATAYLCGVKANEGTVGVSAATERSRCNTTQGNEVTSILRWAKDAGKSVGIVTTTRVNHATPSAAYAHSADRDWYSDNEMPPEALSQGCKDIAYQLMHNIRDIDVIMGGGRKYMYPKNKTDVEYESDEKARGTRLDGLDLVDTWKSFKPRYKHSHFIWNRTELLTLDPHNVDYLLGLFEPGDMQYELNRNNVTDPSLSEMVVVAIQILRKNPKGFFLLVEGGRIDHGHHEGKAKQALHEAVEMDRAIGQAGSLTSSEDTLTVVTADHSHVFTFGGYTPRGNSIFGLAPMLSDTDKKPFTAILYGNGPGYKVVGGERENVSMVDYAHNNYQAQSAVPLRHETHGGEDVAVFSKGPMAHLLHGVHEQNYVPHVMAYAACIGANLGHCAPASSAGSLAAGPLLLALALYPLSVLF

[6] = target: DNA dC->dU-editing enzyme APOBEC-3G (Homo sapiens, UniProt Q9HC16); format: functional;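 note: Dose-response counterscreen measuring inhibition of APOBEC3G DNA deaminase activity, run while confirming APOBEC3A inhibitors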
DNA dC->dU-editing enzyme APOBEC-3G, sequence (Q9HC16 whole entry): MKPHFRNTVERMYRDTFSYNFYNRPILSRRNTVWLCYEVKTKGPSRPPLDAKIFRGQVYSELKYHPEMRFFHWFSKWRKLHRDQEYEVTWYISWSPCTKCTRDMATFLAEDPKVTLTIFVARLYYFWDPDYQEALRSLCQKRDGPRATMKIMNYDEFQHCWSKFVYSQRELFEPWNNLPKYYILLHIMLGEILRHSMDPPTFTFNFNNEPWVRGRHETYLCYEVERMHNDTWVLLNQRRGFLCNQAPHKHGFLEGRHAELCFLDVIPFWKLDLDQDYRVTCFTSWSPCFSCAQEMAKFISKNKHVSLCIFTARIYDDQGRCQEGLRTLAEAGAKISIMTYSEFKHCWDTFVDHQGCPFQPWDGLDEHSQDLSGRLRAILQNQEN

[7] = target: DNA dC->dU-editing enzyme APOBEC-3A (Homo sapiens, UniProt P31941); experiment: Dose Response confirmation of small molecule APOBEC3A DNA Deaminase Inhibitors via a fluorescence-based single-stranded DNA deaminase assay. [Related pubchem assays (depositor defined):AID493011, AID493024]; format: functional
DNA dC->dU-editing enzyme APOBEC-3A, sequence (P31941 whole entry): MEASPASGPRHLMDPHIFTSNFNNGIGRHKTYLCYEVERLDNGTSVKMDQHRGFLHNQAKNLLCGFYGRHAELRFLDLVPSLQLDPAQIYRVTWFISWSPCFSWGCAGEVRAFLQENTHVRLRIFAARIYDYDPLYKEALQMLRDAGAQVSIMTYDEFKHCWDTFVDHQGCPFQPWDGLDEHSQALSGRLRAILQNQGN

[8] = test system: Vero; experiment: cells; format: functional, cell-based; conditions: Chlorocebus sabaeus
[9] = cytotoxicity toward NIH3T3 fibroblasts, dose response, counter-screen, cell-based, ATP luminescence, mouse fibroblasts (AID 2010); format: functional;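 note: cells exposed to compound for about 90 hours before reading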
[10] = test system: Vero; experiment: cells; format: functional; conditions: Chlorocebus sabaeus
[11] = inhibitors of intracellular T. cruzi replication, confirmation, NIH3T3 host cells, beta-gal luminescence (AID 2044); format: functional, cell-based;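 note: intracellular parasites grown in NIH/3T3 mouse fibroblasts as host cells; luminescent beta-galactosidase reporter signal from transgenic T. cruzi replicating inside host cells; inhibitors lower the luminescence signal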
[12] = target: Voltage-gated inwardly rectifying potassium channel KCNH2 (Homo sapiens, UniProt Q12809); conditions: Potency;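 note: confirmatory quantitative high-throughput screen measuring inhibition of hERG channel activity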
Voltage-gated inwardly rectifying potassium channel KCNH2, sequence (Q12809 whole entry, the tested form may be a part): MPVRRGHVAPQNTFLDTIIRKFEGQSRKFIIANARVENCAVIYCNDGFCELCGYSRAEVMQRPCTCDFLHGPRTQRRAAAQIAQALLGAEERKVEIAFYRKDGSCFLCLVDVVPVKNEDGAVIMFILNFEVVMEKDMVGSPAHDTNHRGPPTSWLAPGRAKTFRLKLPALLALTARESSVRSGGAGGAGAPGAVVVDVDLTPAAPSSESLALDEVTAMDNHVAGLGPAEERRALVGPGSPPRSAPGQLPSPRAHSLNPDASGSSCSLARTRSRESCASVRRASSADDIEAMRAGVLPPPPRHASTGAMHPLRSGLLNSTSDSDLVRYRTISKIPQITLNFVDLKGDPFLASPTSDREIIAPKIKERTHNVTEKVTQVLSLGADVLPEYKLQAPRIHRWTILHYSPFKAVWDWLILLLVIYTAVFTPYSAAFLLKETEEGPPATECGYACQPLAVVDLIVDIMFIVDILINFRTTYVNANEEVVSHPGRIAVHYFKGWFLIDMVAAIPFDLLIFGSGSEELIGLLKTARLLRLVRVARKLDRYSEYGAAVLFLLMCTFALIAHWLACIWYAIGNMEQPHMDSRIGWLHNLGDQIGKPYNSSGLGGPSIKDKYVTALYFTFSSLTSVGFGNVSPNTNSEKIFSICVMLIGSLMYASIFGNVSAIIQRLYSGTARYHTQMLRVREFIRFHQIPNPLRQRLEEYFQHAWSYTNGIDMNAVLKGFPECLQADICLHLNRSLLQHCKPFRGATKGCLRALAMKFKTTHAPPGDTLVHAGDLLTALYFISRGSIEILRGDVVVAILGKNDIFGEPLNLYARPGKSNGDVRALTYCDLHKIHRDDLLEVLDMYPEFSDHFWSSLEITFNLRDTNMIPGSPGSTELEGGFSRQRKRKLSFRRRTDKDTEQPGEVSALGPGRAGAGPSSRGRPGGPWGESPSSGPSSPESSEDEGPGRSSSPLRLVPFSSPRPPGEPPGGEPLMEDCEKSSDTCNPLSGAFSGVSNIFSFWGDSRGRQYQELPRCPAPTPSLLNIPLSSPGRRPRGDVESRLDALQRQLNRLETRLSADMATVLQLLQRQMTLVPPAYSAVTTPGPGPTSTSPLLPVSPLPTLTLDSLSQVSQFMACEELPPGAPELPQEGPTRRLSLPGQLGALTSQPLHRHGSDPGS

[13] = target: T4, Carboxy-terminal domain RNA polymerase II polypeptide A small phosphatase 1 (Homo sapiens, UniProt Q9GZU7); experiment: inhibitors of CTDSP1, concentration-response testing, biochemical assay, absorbance-based, actives from ultra-high-throughput screening (AID 540297); format: functional
T4 sequence (Q9GZU7 whole entry): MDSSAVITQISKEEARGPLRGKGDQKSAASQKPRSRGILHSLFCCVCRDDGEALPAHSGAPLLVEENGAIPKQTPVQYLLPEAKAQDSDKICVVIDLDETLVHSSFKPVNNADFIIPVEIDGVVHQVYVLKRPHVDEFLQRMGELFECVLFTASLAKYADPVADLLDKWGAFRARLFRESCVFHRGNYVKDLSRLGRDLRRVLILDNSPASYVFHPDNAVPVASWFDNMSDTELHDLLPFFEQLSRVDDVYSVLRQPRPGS

[14] = target: Cytochrome P450 3A4 (Homo sapiens, UniProt P08684);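 note: CYP3A4 tested as one member of a cytochrome P450 panel screen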
Cytochrome P450 3A4, sequence (P08684 whole entry): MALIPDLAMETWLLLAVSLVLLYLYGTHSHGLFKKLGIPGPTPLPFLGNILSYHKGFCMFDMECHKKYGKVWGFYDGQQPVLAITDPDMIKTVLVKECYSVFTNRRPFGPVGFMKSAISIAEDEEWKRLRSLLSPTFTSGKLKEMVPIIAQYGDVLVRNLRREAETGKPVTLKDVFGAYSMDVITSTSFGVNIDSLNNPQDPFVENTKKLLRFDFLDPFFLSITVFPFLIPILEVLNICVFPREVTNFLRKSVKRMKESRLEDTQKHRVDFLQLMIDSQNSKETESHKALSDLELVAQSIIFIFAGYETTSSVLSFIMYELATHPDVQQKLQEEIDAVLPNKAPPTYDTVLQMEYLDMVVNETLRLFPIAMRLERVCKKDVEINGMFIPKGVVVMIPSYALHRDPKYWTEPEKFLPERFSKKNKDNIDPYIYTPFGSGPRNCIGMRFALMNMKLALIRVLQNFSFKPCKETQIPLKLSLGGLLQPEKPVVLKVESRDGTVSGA

[15] = target: Cytochrome P450 2C19 (Homo sapiens, UniProt P33261); experiment: Cytochrome panel assay with activity outcomes. Panel member name: p450-cyp2c19 Compounds with AC50 equal or less than 10 uM are considered active; format: functional
Cytochrome P450 2C19, sequence (P33261 whole entry): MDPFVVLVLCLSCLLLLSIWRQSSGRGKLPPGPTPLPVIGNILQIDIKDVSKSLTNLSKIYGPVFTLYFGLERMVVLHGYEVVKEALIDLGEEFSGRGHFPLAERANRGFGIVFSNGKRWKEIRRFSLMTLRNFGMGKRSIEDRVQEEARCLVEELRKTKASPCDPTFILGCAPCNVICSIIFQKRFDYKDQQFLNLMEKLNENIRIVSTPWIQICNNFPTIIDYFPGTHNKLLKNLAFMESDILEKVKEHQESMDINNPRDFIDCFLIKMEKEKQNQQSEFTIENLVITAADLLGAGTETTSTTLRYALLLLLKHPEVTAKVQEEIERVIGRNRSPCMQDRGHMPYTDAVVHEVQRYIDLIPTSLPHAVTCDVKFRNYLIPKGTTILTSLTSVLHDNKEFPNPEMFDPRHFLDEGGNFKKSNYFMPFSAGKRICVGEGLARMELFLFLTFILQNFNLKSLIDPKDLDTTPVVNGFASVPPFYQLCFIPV

[16] = target: Cytochrome P450 2C9 (Homo sapiens, UniProt P11712)
Cytochrome P450 2C9, sequence (P11712 whole entry): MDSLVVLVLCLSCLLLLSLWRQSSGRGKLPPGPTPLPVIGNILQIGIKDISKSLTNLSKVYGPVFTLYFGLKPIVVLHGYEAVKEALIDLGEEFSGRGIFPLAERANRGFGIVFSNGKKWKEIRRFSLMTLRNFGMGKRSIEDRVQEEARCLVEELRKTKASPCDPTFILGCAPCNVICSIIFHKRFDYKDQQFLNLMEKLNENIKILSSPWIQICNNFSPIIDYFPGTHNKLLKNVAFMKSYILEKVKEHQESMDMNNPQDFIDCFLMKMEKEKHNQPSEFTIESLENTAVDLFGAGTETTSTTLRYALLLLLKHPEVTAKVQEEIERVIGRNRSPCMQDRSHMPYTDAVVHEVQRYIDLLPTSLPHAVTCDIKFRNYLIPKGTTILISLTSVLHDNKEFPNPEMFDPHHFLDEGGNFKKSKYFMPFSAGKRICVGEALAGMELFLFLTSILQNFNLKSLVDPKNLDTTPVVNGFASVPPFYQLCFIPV

## CS(=O)(=O)Nc1ccccc1C(=O)NCc1ccccc1Cl
[1]
  EC50: > 53 µM (inactive)
[2]
  AC50: 12.8 µM (active)
[3]
  IC50: > 47.1 µM (inactive)

## O=C1[C@H]2CC=CC[C@H]2C(=O)N1c1nnc(Cc2ccc(F)cc2)[nH]1
[4]
  IC50: > 100 µM (not active)
[5]
  IC50: 4.2 µM (active)

## COc1ccc(N2CC(C(=O)NCc3ccco3)CC2=O)cc1 (stereo unspecified)
[6]
  IC50: 21.2 µM (active)
[7]
  IC50: 39.6 µM (active)

## OC(COc1ccc(CNCCc2ccc(C(F)(F)F)cc2)cc1)CN1CCCCC1 (stereo unspecified)
[8]
  IC50: 8.76 µM (active)
[9]
  EC50: 5.08 µM (active)
[10]
  CC50: 16.4 µM (active)
[11]
  EC50: 1.26 µM (active)

## CC(COc1ccc(/C=C/c2ccccc2)cc1)[N+](C)(C)C (stereo unspecified)
[12]
  AC50: 22.4 µM (inconclusive)

## CC(C)C[C@H](N)CSSC[C@@H](N)CC(C)C
[12]
  AC50: 35.5 µM (inconclusive)

## Cc1cc(C(=O)NCc2ccc(C(=O)O)o2)c(C)o1
[6]
  IC50: 45.9 µM (active)
[13]
  IC50: 4.04 µM (active)
[7]
  IC50: 31 µM (active)

## CC(=O)N1CCN(c2ccc(NC(=O)c3ccc(C)cc3)cc2)CC1
[14]
  AC50: inconclusive
[15]
  AC50: 15.8 µM (inconclusive)
[16]
  AC50: 39.8 µM (inconclusive)

## C[n+]1ccccc1/C=C/c1ccccc1Cl
[6]
  IC50: 2.41 µM (active)
[7]
  IC50: 2.25 µM (active)
